The results in this text go back to patent publication US6258839A, “Isolation of naturally occuring isoflavanone and some clinical uses thereof” (priority 1997, dated 2001).

Molecules are shown by their SMILES.

A word on the EC50: it is the concentration that produces a half-maximal response. As a reminder, the IC50 is the concentration at which inhibition is half-maximal.

Data set [1] relates to HIV. Description: HIV activity of co-isolated compounds. In kind it is cell-based.
The next data set deals with DPS/Y181C. Put plainly: activity against HIV mutants: DPS/Y181C. It is filed as cell-based, HIV-1.
The subject of the next data set is HIV-2. Put plainly: activity against HIV-2. In kind it is cell-based.
The next data set deals with BSA (Bos taurus, UniProt P02769). Put plainly: interaction with BSA by fluorescence spectroscopy. In kind it is binding, bovine. The note with it: PMZ-1 in the μM range.
The next data set is described as follows: solubility studies. It is filed as physicochemical. Here is the method: It is very soluble in propylene glycol (PG), polyethylene glycol (PEG) 400 and soybean oil. These solvents may be useful in formulating cosolvents suitable for pharmaceutical applications. The ethanolic solutions has UV absorptions in the 290-300 nm range, useful for analytical work. Aqueous solutions for analytical work were prepared in HPCD and diluted with water to the required concentrations. The stock solutions were stable when incubated for 48 hours at 37° C. and when stored at room temperature.

A further data set relates to U1 latent infection. Put plainly: U1/TNF differential latent infection, XTT and p24. Background: Tetrazolium dyes change colour on reduction, which living cells bring about.
Data set [2] in a line: U1/TNF differential latent infection, XTT and p24. The settings on record: human, u1 cells.
In another data set the test system is HEPT/P236L. Description: activity against HIV mutants: HEPT/P236L. In kind it is cell-based, HIV-1. The note with it: Human immunodeficiency virus 1.
The next data set concerns CEM-SS. Description: growth inhibition of uninfected host cells in anti-HIV screen. The note with it: Homo sapiens.
A further data set concerns HIV-1 AZT^res. Description: in vitro anti-HIV activity, AZT resistant HIV-1. It is filed as cell-based. The settings on record: Human immunodeficiency virus 1.
Another data set deals with SIV MAC. Description: in vitro antiviral activity, SIV. In kind it is cell-based.
The subject of another data set is breast cancer. Description: NCI 60 cell line panel, breast cancer. It is filed as cell-based.
In data set [3] the test system is HIV in fresh human peripheral blood mononuclear cells (PBMC's). Put plainly: in vitro anti-HIV activity in fresh human PBMC's. In kind it is cell-based, HIV-1. The settings on record: Human immunodeficiency virus 1, PBMC.
In data set [4] the test system is HIV-1 attachment to cells (CEM-SS, PBMC's). Put plainly: virus attachment assay, p24 based. In kind it is cell-based.
A further data set deals with CALO/V901, P225S. Description: microbe, parasite or virus in culture. It is filed as cell-based, HIV-1. The note with it: Human immunodeficiency virus 1.
The test system of data set [5] is HIV. Description: combination studies with AZT. It is filed as cell-based.
The next data set concerns the target integrase (Human immunodeficiency virus type 1 group M subtype B, UniProt P04585). Put plainly: integrase enzymatic activity. In kind it is biochemical, HIV.
The subject of data set [6] is mutant viruses containing reverse transcriptase domain at codons 181, 139 and 100. Description: activity against three other mutant viruses. It is filed as cell-based, HIV.
The next data set concerns TiBO/A98G, V1081. Put plainly: activity against HIV mutants: TiBO/A98G, V1081. In kind it is cell-based, HIV-1. The settings on record: Human immunodeficiency virus 1.
The test system of another data set is HIV-11118. Put plainly: in vitro anti-HIV activity, HIV-11118. In kind it is cell-based, HIV-1.
A further data set is described as follows: hollow fibre studies. In kind it is in vivo. The settings on record: intraperitoneally; preliminary.
In data set [7] the test system is HIV-1 infected cells (p24 production). Description: extended time course assay, p24 and XTT. The settings on record: addition to culture after infection.

Chain of BSA (P02769 25-607): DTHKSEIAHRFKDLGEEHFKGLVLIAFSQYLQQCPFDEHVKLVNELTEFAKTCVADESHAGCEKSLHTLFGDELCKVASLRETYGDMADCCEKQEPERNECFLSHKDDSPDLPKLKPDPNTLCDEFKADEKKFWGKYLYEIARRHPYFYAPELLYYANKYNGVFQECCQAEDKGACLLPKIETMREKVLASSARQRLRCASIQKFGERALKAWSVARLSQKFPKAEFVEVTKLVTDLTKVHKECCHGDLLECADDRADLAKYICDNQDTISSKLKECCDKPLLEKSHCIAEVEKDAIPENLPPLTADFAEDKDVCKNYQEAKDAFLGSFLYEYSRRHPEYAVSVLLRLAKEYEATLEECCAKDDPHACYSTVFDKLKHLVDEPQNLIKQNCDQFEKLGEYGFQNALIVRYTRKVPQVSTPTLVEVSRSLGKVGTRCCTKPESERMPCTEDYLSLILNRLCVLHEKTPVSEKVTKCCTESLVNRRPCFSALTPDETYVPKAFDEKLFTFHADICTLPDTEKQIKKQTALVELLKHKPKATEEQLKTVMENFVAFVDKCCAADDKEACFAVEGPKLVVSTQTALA

As to `CC(C)=CCc1cc(C2COc3cc(O)cc(O)c3C2=O)cc(O)c1O` (stereo not drawn) [4382-39-2], the HIV activity result in the data set with HIV [1] was “devoid of HIV activity”.

Regarding `COc1c(O)cc(C2COc3cc(O)cc(O)c3C2=O)cc1CC=C(C)C` (racemic) [PMZ-1], the EC50 in the data set with DPS/Y181C (Human immunodeficiency virus 1, DPS/Y181C) was 1.39 µM; in the data set with DPS/Y181C (Human immunodeficiency virus 1, mutant Y181), about 1 µM; with HEPT/P236L, over 5 µM; in the data set on HIV-1 AZT^res, 0.16 µM; in data set [3] (PMBC's), 0.6 µM; in data set [3] (fresh human PBMC's), under 1 µM. For the same compound, the EC50 is 0.1 µM in the data set on CALO/V901, P225S; over 5 µM with TiBO/A98G, V1081; 0.2 µM in the data set with HIV-11118 (Human immunodeficiency virus 1, HIV-1IIIB, NCI AIDS anti-viral screen); 0.058 µM in the data set with HIV-11118 (Human immunodeficiency virus 1, HIV-11118). In addition, the “activity against HIV-2” value in the data set on HIV-2 is “weak activity”. Moreover, the “quenching of fluorescence of BSA” value on BSA is given as “concentration dependent quenching”. In the data set “solubility studies” (40% hydroxypropyl beta-cyclodextrin), the “solubility in 40% HPCD” value is reported as “soluble”. In addition, in “solubility studies” (ethanol), the solubility in ethanol was over 1000 µg/mL. The “solubility in PG, PEG 400 and soybean oil” value in “solubility studies” (propylene glycol, polyethylene glycol 400, soybean oil) was “very soluble”. The solubility in water result in “solubility studies” (water) is given as “poorly soluble”. Moreover, the “U1/TNF differential latent infection XTT: toxic concentration” value with U1 latent infection (XTT) is at most 3.16 µM. In addition, the “U1/TNF differential latent infection p24 production” value with U1 latent infection (p24) is recorded as “no inhibition of p24 production”. In data set [2], this compound displayed an MNTC of 1000 nM. In addition, the IC50 with CEM-SS is 38 µM; in the data set with CEM-SS (cell growth, HIV-1 AZT^res test), 42 µM; with CEM-SS (cell growth, HIV-1 AZT^sen test), 35 µM; with CEM-SS (cell growth, HIV-1 DPS test), 42 µM; in the data set on CEM-SS (cell growth, HIV-1 N119 test), 60 µM; in the data set with CEM-SS (cell growth, HIV-1RF test), 20 µM. The IC50 is 28 µM in the data set with CEM-SS (cell growth, HIV-1 ROD test); 46 µM in the data set on CEM-SS (cell growth, HIV-11118 test); 35 µM with CEM-SS (cell growth, SIV MAC test); 40 µM against integrase. For the same compound, the “activity against SIV” value in the data set on SIV MAC is recorded as “weak activity”. The “activity against breast cancer” value with breast cancer is listed as “good activity”. In data set [4], the “effect on attachment of virons to cells” value is listed as “no effect”. In addition, in data set [4] (at 100 μM, CEM-SS cells), the “HIV-1 Attachment to CEM-SS cells” value is “No inhibition”. Also, the “anti-viral combination effect with AZT” value with HIV [5] was “anti-viral synergistic effects”. In addition, the “activity against three other mutant viruses” value in [6] was “some activity”. Also, in “hollow fibre studies”, the “activity in hollow fibre studies” value is “active”.

Turning to `CC(C)=CCc1c(O)cc(O)c2c1OC(c1ccc(O)c(O)c1)CC2=O` (stereo not drawn) [4382-39-1], in the data set with HIV [1], the HIV activity entry is “devoid of HIV activity”.

With `Cc1ccnc2c1NC(=O)c1cccnc1N2C1CC1` [nevirapine, reference compound], the “time after infection within which addition is effective” value in data set [7] is at most 8 h.
